{"source": "patent US12076301B2", "about": "“Engaging the cervical spinal cord circuitry to re-enable volitional control of hand function in tetraplegic subjects” (The Regents of the University of California, priority 2013, dated 2024)", "tested_on": "subjects with a chronic motor complete cervical injury", "assay": "Maximal handgrip strength (handgrip force measurement device) in tetraplegic subjects during pcEmc with oral buspirone", "type": "in vivo, human", "description": "Six subjects with chronic (18-36 months) spinal cord injury (SCI, traumatic cervical injury, ASIA B with no motor strength below the injury) were tested to determine if hand function can be improved by neuromodulating the cervical spinal cord. All subjects initially had minimal hand strength, a condition reflecting the majority of cervical SCI patients. Our experimental approach began with 6 weeks of baseline testing (Phase 1), followed by three 2-week treatment periods (Phases 2-4), and then by a period of approximately three months without any treatment at the end of which there was a final 2-week testing period (Phase 5). pcEmc at the C5 spinal segment (Phase 2) increased hand strength in 4/6 subjects compared to baseline Phase 1 (FIG. 1, panels A-G). […]\nVoluntary motor control data were assessed using a handgrip force measurement device. […] The number of completed contraction-release sequences across the lines was determined. […] The percentage of data points that fell inside a circular window at a sampling of 15 Hz was determined. […]\nThe transcutaneous stimulation device is non-invasive. […] Varying combinations of these stimulation parameters were systematically assessed to obtain optimum facilitation of voluntary hand contraction by identification of the relative activation levels of the motor pools studied (data not shown). […]", "data": [{"molecule": "O=C1CC2(CCCC2)CC(=O)N1CCCCN1CCN(c2ncccn2)CC1", "note": "[buspirone]", "values": [{"measurement": "Mean hand strength increase", "setting": "after pcEmc plus fEmc (buspirone) treatment, 6 subjects, 7.5 mg buspirone twice daily for 2 weeks, oral", "value": "greater than 300%"}, {"measurement": "Subjects with increased hand strength compared to Phase 1 and 2", "setting": "during buspirone treatment (Phase 3) with pcEmc at C5, number of subjects out of 6", "value": "4/6"}]}]}
